“And” between values parts separate entries of the source, which are not always exact repeats. Equal entries are not always repeated.
How the values were obtained:
[1] = system: Mucilaginibacter HPPD (SEQ ID NO: 28); assay: In vitro HPPD activity assay, tolerance index; format: biochemical, Mucilaginibacter paludis; details: normalized on Arabidopsis wild-type HPPD
Procedure: (§1) The activity assay for HPPD is based on the analysis of homogentisic acid by reversed phase HPLC.
(§2) The assay mixture can contain 150 mM potassium phosphate buffer pH 7.0, 50 mM L-ascorbic acid, 100 μM Catalase (Sigma-Aldrich), 1 μM FeSO4 and 0.2 units of purified HPPD enzyme in a total volume of 505 μl. 1 unit is defined as the amount of enzyme that is required to produce 1 nmol of HGA per minute at 20° C.
(§3) The reaction is allowed to proceed for 45 min at room temperature. The reaction is stopped by the addition of 50 μl of 4.5 M phosphoric acid. The sample is filtered using a […] pore size PVDF filtration device.
(§4) 5 μl of the cleared sample is analyzed on an UPLC HSS T3 column (particle size 1.8 μm, dimensions 2.1×50 mm; Waters) by isocratic elution using 90% 20 mM NaH2PO4 pH 2.2, 10% methanol (v/v).
(§5) HGA is detected electrochemically at 750 mV (mode: DC; polarity: positive) and quantified by integrating peak areas (Empower software; Waters).
(§6) Inhibitors are dissolved in DMSO (dimethylsulfoxide) to a concentration of 0.5 mM. From this stock solution serial five-fold dilutions are prepared in DMSO, which are used in the assay. The respective inhibitor solution accounts for 1% of the assay volume. Thus, final inhibitor concentrations range from 5 μM to 320 pM, respectively. Activities are normalized by setting the uninhibited enzyme activity to 100%. IC50 values are calculated using non-linear regression.
(§7) Using methods which are described in the above examples or well known in the art, purified, recombinant wildtype HPPD enzymes are characterized with respect to their kinetic properties and sensitivity towards HPPD inhibiting herbicides. Apparent michaelis constants (Km) and maximal reaction velocities (Vmax) are calculated by non-linear regression with the software GraphPad Prism 5 (GraphPad Software, La Jolla, USA) using a substrate inhibition model. […] Weighted means (by standard error) of Km and IC50 values are calculated from at least three independent experiments. The Cheng-Prusoff equation for competitive inhibition (Cheng, Y. C.; Prusoff, W. H. Biochem Pharmacol 1973, 22, 3099-3108) is used to calculate dissociation constants (Ki).
(§8) Field performance of the HPPD enzyme, which is used as a herbicide tolerance trait may depend not only on its lack of sensitivity towards HPPD inhibiting herbicides but also on its activity. To assess the potential performance of a herbicide tolerance trait a tolerance index (TI) is calculated using the following formula: […]
(§9) Easy comparison and ranking of each trait is enabled by normalizing tolerance indexes on Arabidopsis wild-type HPPD.

[2] = system: Acidobacterium HPPD (SEQ ID NO: 30); assay: In vitro HPPD activity assay, tolerance index; format: biochemical, Acidobacterium capsulatum; details: normalized on Arabidopsis wild-type HPPD
Procedure: as §1, §2, §3, §4, §5, §6, §7, §8, §9

[3] = system: transgenic Arabidopsis plants expressing Acidobacterium HPPD; assay: Greenhouse herbicide spray test, transgenic plants (T2); format: in vivo, Arabidopsis thaliana; details: two weeks after treatment
Description: (§10) Additionally, T1 and T2 transgenic Arabidopsis plants can be tested for improved tolerance to HPPD-inhibiting herbicides in greenhouse studies. Herbicide injury scoring is done 2-3 weeks after treatment and is rated on a scale of 0 to 100%, 0% being no injury and 100% being complete death.
(§11) Transgenic Arabidopsis plants were sprayed with a range of doses from 1.56-50 g/ha with HPPD-inhibiting herbicides and injury evaluations were taken two weeks after treatment. […] As depicted in Table 6, control plants are severely injured by all doses of herbicide applied, with at least 70% of leaf material being damaged at the lowest application rate. For example, transgenic plants expressing Scenedesmus HPPD have an excellent tolerance to all herbidcides tested. […] After application of Inhibitor 2, only 18% of leaf material was damaged resulting in a 5-fold tolerance compared to the WT at the highest application rate.

[4] = system: transgenic Arabidopsis plants expressing Algoriphagus HPPD; assay: as above; format: in vivo, Arabidopsis thaliana; details: two weeks after treatment
Description: as §10, §11

[5] = system: transgenic Arabidopsis plants expressing Scenedesmus HPPD; assay: as above; format: in vivo, Arabidopsis thaliana; details: two weeks after treatment
Description: as §10, §11

[6] = system: Algoriphagus HPPD (SEQ ID NO: 22); assay: In vitro HPPD activity assay, tolerance index; format: biochemical, Algoriphagus machipongonensis; details: normalized on Arabidopsis wild-type HPPD
Procedure: as §1, §2, §3, §4, §5, §6, §7, §8, §9

[7] = system: Pontibacter HPPD (SEQ ID NO: 16); assay: In vitro HPPD activity assay, tolerance index; format: biochemical, Pontibacter sp.; details: normalized on Arabidopsis wild-type HPPD
Procedure: as §1, §2, §3, §4, §5, §6, §7, §8, §9

[8] = system: untransformed wild-type (WT) Arabidopsis plants; assay: Greenhouse herbicide spray test, wild-type plants; format: in vivo, Arabidopsis thaliana; details: two weeks after treatment, mean of three plants
Description: as §10, §11

[9] = system: Microscilla HPPD (SEQ ID NO: 20); assay: In vitro HPPD activity assay, tolerance index; format: biochemical, Microscilla marina; details: normalized on Arabidopsis wild-type HPPD
Procedure: as §1, §2, §3, §4, §5, §6, §7, §8, §9

[10] = target: T1, Arabidopsis HPPD (SEQ ID NO: 42) (Arabidopsis thaliana, UniProt P93836); assay: In vitro HPPD activity assay (HGA by HPLC), wildtype enzyme characterization; format: biochemical; details: for TI (normalized tolerance index): normalized on Arabidopsis wild-type HPPD, reference enzyme
T1 construct: Arabidopsis (42); His tag; made in house; host or cells: E. coli BL21 (DE3)
T1 sequence (P93836 1-445): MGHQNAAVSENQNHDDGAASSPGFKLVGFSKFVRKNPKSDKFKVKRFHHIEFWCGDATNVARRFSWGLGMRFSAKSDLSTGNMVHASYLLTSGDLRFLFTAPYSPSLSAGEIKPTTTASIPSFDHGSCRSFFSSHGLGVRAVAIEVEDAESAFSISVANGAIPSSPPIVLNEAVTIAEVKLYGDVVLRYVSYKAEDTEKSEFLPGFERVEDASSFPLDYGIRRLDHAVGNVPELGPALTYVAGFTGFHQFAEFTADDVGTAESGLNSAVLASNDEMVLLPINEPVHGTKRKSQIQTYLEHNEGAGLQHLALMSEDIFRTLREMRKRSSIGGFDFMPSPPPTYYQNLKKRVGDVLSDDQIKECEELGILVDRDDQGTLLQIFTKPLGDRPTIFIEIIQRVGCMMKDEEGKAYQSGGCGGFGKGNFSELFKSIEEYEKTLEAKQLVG
Procedure: as §1, §2, §3, §4, §5
as §6, with “Thus, final inhibitor concentrations range from 5 μM to 320 pM, respectively.” left out
as §7, with “experiments.” for “experiments. The Cheng-Prusoff equation for competitive inhibition (Cheng, Y. C.; Prusoff, W. H. Biochem Pharmacol 1973, 22, 3099-3108) is used to calculate dissociation constants (Ki).”
as §8, §9

[11] = system: Scenedesmus HPPD (SEQ ID NO: 4); assay: In vitro HPPD activity assay, tolerance index; format: biochemical, Scenedesmus obliquus; details: normalized on Arabidopsis wild-type HPPD
Procedure: as §1, §2, §3, §4, §5, §6, §7, §8, §9

[12] = system: Herpetosiphon HPPD (SEQ ID NO: 26); assay: In vitro HPPD activity assay, tolerance index; format: biochemical, Herpetosiphon aurantiacus; details: normalized on Arabidopsis wild-type HPPD
Procedure: as §1, §2, §3, §4, §5, §6, §7, §8, §9

[13] = system: Belliella HPPD (SEQ ID NO: 12); assay: In vitro HPPD activity assay, tolerance index; format: biochemical, Belliella baltica; details: normalized on Arabidopsis wild-type HPPD
Procedure: as §1, §2, §3, §4, §5, §6, §7, §8, §9

[14] = system: Geodermatophilus HPPD (SEQ ID NO: 32); assay: In vitro HPPD activity assay, tolerance index; format: biochemical, Geodermatophilus obscurus; details: normalized on Arabidopsis wild-type HPPD
Procedure: as §1, §2, §3, §4, §5, §6, §7, §8, §9

Compound: Cc1c(C(=O)c2cnn(C)c2O)ccc(S(C)(=O)=O)c1C1=NOCC1 [Inhibitor 1, [3-(4,5-dihydroisoxazol-3-yl)-2-methyl-4-methylsulfonyl-phenyl]-(5-hydroxy-1-methyl-pyrazol-4-yl)methanone]
- TI (normalized tolerance index) [1]: 56.8
- TI (normalized tolerance index) [2]: 22 and 21.9
- Injury evaluation, scale 0-100% ([3]; Acidobacterium HPPD Event 1, 1.56 g/ha): 43%
- Injury evaluation, scale 0-100% ([3]; Acidobacterium HPPD Event 1, 3.125 g/ha): 78%
- Injury evaluation, scale 0-100% ([3]; Acidobacterium HPPD Event 1, 6.25 g/ha): 94%
- Injury evaluation, scale 0-100% ([3]; Acidobacterium HPPD Event 2, 1.56 g/ha): 48%
- Injury evaluation, scale 0-100% ([3]; Acidobacterium HPPD Event 2, 3.125 g/ha): 78%
- Injury evaluation, scale 0-100% ([3]; Acidobacterium HPPD Event 2, 6.25 g/ha): 97%
- Injury evaluation, scale 0-100% ([4]; Algoriphagus HPPD Event 1, 1.56 g/ha): 60%
- Injury evaluation, scale 0-100% ([4]; Algoriphagus HPPD Event 1, 3.125 g/ha): 70%
- Injury evaluation, scale 0-100% ([4]; Algoriphagus HPPD Event 1, 6.25 g/ha): 90%
- Injury evaluation, scale 0-100% ([4]; Algoriphagus HPPD Event 2, 1.56 g/ha): 48%
- Injury evaluation, scale 0-100% ([4]; Algoriphagus HPPD Event 2, 3.125 g/ha): 68%
- Injury evaluation, scale 0-100% ([4]; Algoriphagus HPPD Event 2, 6.25 g/ha): 78%
- Injury evaluation, scale 0-100% ([5]; Scenedesmus HPPD Event 1, 1.56 g/ha): 35%
- Injury evaluation, scale 0-100% ([5]; Scenedesmus HPPD Event 1, 3.125 g/ha): 58%
- Injury evaluation, scale 0-100% ([5]; Scenedesmus HPPD Event 1, 6.25 g/ha): 68%
- Injury evaluation, scale 0-100% ([5]; Scenedesmus HPPD Event 2, 1.56 g/ha): 45%
- Injury evaluation, scale 0-100% ([5]; Scenedesmus HPPD Event 2, 3.125 g/ha): 55%
- Injury evaluation, scale 0-100% ([5]; Scenedesmus HPPD Event 2, 6.25 g/ha): 65%
- TI (normalized tolerance index) [6]: 23.7
- TI (normalized tolerance index) [7]: 5.3
- Injury evaluation, scale 0-100% ([8]; 1.56 g/ha): 88%
- Injury evaluation, scale 0-100% ([8]; 3.125 g/ha): 90%
- Injury evaluation, scale 0-100% ([8]; 6.25 g/ha): 90%
- TI (normalized tolerance index) [9]: 9.1
- Ki [10]: 0.95 nM
- TI (normalized tolerance index) [10]: 1
- TI (tolerance index) ([10]; not normalized): 0.95E−3

Compound: CC(=O)N(C)c1c(Cl)ccc(C2=C(O)c3ncccc3C(C)(C)S2(=O)=O)c1Cl [Inhibitor 6, N-[2,6-dichloro-3-(8-hydroxy-5,5-dimethyl-6,6-dioxo-thiopyrano[4,3-b]pyridin-7-yl)phenyl]-N-methyl-acetamide]
- TI (normalized tolerance index) [1]: 3.1
- TI (normalized tolerance index) [11]: 0.3
- TI (normalized tolerance index) [6]: 29.7
- TI (normalized tolerance index) [7]: 1.5
- TI (normalized tolerance index) [9]: 14.7
- TI (normalized tolerance index) [12]: 1.2
- TI (normalized tolerance index) [13]: 7.6
- TI (normalized tolerance index) [10]: 1
- TI (normalized tolerance index) [14]: 3.4

Compound: CC1=NOC(c2c(Cl)ccc(C3=C(O)c4ncccc4C(C)(C)S3(=O)=O)c2Cl)C1 (centres unmarked) [Inhibitor 7, 7-[2,4-dichloro-3-(3-methyl-4,5-dihydroisoxazol-5-yl)phenyl]-5,5-dimethyl-6,6-dioxo-thiopyrano[4,3-b]pyridin-8-ol]
- TI (normalized tolerance index) [1]: 62.6
- TI (normalized tolerance index) [2]: 239 and 238.9
- TI (normalized tolerance index) [6]: 448 and 447.5
- TI (normalized tolerance index) [7]: 107.7
- TI (normalized tolerance index) [9]: 337.7
- TI (normalized tolerance index) [10]: 1

Compound: CC1(C)c2cccnc2C(O)=C(c2ccc(Cl)nc2Cl)S1(=O)=O [Inhibitor 8, 7-(2,6-dichloro-3-pyridyl)-5,5-dimethyl-6,6-dioxo-thiopyrano[4,3-b]pyridin-8-ol]
- TI (normalized tolerance index) [1]: 26
- TI (normalized tolerance index) [2]: 35 and 34.6
- TI (normalized tolerance index) [6]: 73.7
- TI (normalized tolerance index) [7]: 13.7
- TI (normalized tolerance index) [9]: 65.9
- TI (normalized tolerance index) [10]: 1

Compound: CC1(C)c2cccnc2C(O)=C(c2c(F)ccc(Cl)c2Br)S1(=O)=O [Inhibitor 9, 7-(2-bromo-3-chloro-6-fluoro-phenyl)-5,5-dimethyl-6,6-dioxo-thiopyrano[4,3-b]pyridin-8-ol]
- TI (normalized tolerance index) [2]: 20 and 20.2
- TI (normalized tolerance index) [6]: 42.8
- TI (normalized tolerance index) [7]: 3.9
- TI (normalized tolerance index) [9]: 22.8
- TI (normalized tolerance index) [12]: tolerant
- TI (normalized tolerance index) [10]: 1
- TI (normalized tolerance index) [14]: tolerant

Compound: Cc1nonc1NC(=O)c1ccc(S(C)(=O)=O)c(S(C)(=O)=O)c1C [Inhibitor 10, 2-methyl-N-(4-methyl-1,2,5-oxadiazol-3-yl)-3,4-bis(methylsulfonyl)benzamide]
- TI (normalized tolerance index) [1]: 34.1
- TI (normalized tolerance index) [6]: 19
- TI (normalized tolerance index) [7]: 6
- TI (normalized tolerance index) [9]: 8.3
- TI (normalized tolerance index) [10]: 1

Reference: patent US10619138B2, “Herbicide-resistant hydroxyphenylpyruvate dioxygenases” (BASF SE, priority 2013, dated 2020)
